Reference: publication PMC12586182 (Frontiers in Oncology, 2025)

Columns and labels:
Assay in all cases: Kinase panel profiling at 1 µmol/L (mobility shift assay, Carna)
Type in all cases: biochemical
Conditions in all cases: 1 µmol/L of BTK inhibitor
DDR1 = biological target: T1, DDR1 (Homo sapiens, UniProt Q08345)
T1 construct: purchased Carna Biosciences

EPHA2 = biological target: T2, EPHA2 (Homo sapiens, UniProt P29317)
T2 construct: purchased Carna Biosciences

FAK = biological target: T3, FAK (Homo sapiens, UniProt Q05397)
T3 construct: purchased Carna Biosciences

FLT1 = biological target: T4, FLT1 (Homo sapiens, UniProt P17948)
T4 construct: purchased Carna Biosciences
T4 sequence (P17948 27-1338): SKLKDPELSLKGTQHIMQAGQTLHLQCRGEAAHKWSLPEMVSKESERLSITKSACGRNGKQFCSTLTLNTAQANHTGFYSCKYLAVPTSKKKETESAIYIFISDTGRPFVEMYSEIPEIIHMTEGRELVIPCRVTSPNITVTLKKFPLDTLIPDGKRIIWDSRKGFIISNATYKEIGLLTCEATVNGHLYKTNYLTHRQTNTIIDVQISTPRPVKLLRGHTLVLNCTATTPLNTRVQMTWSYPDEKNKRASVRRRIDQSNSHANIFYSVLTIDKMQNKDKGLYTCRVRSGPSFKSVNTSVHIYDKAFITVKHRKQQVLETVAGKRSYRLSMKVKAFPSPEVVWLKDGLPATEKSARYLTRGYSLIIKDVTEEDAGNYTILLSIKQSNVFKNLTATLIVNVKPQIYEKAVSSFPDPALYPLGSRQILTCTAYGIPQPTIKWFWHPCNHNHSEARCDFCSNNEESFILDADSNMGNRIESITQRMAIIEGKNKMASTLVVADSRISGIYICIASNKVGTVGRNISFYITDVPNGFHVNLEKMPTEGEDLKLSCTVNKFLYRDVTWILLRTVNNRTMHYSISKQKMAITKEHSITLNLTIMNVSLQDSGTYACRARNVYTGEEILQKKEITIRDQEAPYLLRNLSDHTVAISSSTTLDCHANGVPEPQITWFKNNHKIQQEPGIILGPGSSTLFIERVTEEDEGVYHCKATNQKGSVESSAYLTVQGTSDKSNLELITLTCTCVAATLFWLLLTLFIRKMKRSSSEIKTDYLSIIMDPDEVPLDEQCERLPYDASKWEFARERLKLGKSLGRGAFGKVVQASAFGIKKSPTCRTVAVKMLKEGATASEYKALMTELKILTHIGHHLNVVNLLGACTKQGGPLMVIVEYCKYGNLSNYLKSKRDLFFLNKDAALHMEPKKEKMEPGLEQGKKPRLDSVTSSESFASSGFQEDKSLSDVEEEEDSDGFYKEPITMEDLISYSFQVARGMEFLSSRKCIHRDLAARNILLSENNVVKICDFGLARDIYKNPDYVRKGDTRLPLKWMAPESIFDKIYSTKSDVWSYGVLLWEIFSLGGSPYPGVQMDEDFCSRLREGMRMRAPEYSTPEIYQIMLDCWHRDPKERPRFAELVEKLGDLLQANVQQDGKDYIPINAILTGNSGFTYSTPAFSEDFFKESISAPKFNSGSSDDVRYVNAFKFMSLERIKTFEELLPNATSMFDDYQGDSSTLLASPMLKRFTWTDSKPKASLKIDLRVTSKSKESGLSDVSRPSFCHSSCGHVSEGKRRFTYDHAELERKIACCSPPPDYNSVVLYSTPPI

PDGFRβ = biological target: T5, PDGFRβ (Homo sapiens, UniProt P09619)
T5 construct: purchased Carna Biosciences

CaMK1α = biological target: T6, CaMK1α (Homo sapiens, UniProt Q14012)
T6 construct: purchased Carna Biosciences
T6 sequence (Q14012 whole entry): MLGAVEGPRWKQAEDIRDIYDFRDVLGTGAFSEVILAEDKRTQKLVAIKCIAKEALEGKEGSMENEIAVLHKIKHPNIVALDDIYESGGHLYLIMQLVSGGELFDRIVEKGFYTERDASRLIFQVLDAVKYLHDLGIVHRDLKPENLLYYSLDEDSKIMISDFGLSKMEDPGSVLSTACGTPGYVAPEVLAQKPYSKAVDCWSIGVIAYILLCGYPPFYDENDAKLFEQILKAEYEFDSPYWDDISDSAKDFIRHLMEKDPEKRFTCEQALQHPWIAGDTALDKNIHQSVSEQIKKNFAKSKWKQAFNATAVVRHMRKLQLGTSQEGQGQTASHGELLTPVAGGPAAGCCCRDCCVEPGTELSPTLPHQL

CaMK2γ = biological target: T7, CaMK2γ (Homo sapiens, UniProt Q13555)
T7 construct: purchased Carna Biosciences

CDC7/ASK = biological target: T8, CDC7/ASK (Homo sapiens, UniProt O00311)
T8 construct: purchased Carna Biosciences

CDK3/CycE1 = biological target: T9, CDK3/CycE1 (Homo sapiens, UniProt Q00526)
T9 construct: purchased Carna Biosciences

CDK9/CycT1 = biological target: T10, CDK9/CycT1 (Homo sapiens, UniProt P50750)
T10 construct: purchased Carna Biosciences

CHK2 = biological target: T11, CHK2 (Homo sapiens, UniProt O96017)
T11 construct: purchased Carna Biosciences
T11 sequence (O96017 whole entry): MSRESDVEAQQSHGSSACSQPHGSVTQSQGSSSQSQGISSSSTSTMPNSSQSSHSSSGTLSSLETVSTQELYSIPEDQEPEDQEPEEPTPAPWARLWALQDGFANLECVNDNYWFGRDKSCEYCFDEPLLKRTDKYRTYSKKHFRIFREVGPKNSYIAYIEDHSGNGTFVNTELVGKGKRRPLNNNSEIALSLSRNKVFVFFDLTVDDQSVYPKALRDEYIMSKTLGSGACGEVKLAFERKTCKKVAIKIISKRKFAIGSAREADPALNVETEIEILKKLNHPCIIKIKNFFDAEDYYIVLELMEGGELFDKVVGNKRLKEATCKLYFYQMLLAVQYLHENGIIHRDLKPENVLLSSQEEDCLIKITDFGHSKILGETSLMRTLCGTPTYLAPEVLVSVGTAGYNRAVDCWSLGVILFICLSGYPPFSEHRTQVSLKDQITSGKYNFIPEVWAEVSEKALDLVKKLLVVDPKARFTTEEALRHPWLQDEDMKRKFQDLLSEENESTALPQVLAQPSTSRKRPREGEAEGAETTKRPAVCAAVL

CK1δ = biological target: T12, CK1δ (Homo sapiens, UniProt P48730)
T12 construct: purchased Carna Biosciences

DYRK1B = biological target: T13, DYRK1B (Homo sapiens, UniProt Q9Y463)
T13 construct: purchased Carna Biosciences

IRAK4 = biological target: T14, IRAK4 (Homo sapiens, UniProt Q9NWZ3)
T14 construct: purchased Carna Biosciences
T14 sequence (Q9NWZ3 1-460): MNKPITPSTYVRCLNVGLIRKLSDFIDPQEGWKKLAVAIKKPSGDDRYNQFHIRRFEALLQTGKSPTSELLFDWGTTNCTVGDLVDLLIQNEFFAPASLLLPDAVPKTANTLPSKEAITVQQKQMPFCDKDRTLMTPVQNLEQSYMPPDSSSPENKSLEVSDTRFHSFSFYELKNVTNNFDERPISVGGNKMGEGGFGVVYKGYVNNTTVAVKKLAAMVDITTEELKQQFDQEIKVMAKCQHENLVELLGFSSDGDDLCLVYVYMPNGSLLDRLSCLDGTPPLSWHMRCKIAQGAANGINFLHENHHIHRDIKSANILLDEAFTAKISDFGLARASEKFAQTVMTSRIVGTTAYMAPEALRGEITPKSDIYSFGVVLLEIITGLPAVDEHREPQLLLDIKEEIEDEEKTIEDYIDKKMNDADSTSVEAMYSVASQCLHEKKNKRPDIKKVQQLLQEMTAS

JNK3 = biological target: T15, JNK3 (Homo sapiens, UniProt P53779)
T15 construct: purchased Carna Biosciences
T15 sequence (P53779 whole entry): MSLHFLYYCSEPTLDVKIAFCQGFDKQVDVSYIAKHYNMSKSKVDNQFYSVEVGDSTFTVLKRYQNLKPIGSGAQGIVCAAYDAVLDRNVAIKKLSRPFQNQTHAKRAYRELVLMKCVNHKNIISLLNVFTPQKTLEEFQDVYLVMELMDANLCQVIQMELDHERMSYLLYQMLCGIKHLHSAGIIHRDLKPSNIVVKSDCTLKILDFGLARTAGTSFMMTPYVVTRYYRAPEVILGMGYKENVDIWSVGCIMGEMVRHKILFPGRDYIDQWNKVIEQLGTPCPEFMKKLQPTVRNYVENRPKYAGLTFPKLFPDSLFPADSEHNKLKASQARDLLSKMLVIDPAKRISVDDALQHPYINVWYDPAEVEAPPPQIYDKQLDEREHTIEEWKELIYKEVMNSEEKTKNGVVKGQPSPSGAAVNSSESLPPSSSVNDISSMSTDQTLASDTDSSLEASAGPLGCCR

MARK1 = biological target: T16, MARK1 (Homo sapiens, UniProt Q9P0L2)
T16 construct: purchased Carna Biosciences
T16 sequence (Q9P0L2 whole entry): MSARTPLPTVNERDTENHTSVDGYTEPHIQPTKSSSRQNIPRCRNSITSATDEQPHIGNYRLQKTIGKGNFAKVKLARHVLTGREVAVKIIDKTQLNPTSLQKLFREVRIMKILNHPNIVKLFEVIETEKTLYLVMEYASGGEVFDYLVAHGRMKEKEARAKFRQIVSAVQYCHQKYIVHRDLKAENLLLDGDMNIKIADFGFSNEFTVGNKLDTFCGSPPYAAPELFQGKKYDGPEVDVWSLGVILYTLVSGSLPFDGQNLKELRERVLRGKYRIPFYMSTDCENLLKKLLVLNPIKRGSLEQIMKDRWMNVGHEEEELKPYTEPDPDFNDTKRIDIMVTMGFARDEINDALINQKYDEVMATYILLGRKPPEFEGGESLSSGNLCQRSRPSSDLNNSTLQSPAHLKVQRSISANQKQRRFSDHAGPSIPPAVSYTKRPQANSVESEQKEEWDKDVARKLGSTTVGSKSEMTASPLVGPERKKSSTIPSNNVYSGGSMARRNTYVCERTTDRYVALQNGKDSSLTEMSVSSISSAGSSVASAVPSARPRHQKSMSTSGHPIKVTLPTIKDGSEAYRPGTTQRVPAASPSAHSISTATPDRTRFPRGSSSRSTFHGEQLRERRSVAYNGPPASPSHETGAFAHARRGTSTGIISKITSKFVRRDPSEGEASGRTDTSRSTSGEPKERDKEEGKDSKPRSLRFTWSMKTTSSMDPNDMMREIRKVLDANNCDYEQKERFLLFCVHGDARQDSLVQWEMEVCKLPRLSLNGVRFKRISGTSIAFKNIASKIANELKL

MARK2 = biological target: T17, MARK2 (Homo sapiens, UniProt Q7KZI7)
T17 construct: purchased Carna Biosciences

MNK2 = biological target: T18, MNK2 (Homo sapiens, UniProt Q9HBH9)
T18 construct: purchased Carna Biosciences

NEK2 = biological target: T19, NEK2 (Homo sapiens, UniProt P51955)
T19 construct: purchased Carna Biosciences
T19 sequence (P51955 1-445): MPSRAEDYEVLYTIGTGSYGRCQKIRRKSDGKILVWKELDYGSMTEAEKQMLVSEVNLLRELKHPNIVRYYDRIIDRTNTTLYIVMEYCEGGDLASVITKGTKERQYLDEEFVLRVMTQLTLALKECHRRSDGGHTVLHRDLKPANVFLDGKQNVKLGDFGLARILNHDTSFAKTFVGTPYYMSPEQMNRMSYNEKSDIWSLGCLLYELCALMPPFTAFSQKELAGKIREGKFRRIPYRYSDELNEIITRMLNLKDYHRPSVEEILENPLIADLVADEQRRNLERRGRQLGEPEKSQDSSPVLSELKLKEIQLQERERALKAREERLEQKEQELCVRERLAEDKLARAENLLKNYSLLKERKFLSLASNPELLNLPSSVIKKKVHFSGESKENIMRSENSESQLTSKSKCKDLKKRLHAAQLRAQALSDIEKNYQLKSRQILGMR

PAK6 = biological target: T20, PAK6 (Homo sapiens, UniProt Q9NQU5)
T20 construct: purchased Carna Biosciences
T20 sequence (Q9NQU5 whole entry): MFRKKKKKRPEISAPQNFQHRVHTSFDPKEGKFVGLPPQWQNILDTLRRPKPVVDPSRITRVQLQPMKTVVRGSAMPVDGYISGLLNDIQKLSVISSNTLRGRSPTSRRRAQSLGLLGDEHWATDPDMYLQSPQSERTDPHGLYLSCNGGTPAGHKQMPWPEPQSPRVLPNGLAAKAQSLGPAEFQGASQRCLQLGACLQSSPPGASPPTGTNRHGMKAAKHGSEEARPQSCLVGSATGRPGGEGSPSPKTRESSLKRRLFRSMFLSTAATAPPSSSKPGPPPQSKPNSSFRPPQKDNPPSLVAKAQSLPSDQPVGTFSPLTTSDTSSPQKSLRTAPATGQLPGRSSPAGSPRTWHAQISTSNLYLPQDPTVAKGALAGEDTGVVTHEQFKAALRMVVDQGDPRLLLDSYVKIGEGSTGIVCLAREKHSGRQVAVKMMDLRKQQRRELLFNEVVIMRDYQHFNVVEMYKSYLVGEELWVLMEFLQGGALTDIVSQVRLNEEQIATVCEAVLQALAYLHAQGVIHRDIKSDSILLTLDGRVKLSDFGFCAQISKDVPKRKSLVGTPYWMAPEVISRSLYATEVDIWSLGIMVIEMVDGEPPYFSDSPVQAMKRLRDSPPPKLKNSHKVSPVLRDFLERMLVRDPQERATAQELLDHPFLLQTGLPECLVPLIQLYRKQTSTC

PKCη = biological target: T21, PKCη (Homo sapiens, UniProt P24723)
T21 construct: purchased Carna Biosciences
T21 sequence (P24723 whole entry): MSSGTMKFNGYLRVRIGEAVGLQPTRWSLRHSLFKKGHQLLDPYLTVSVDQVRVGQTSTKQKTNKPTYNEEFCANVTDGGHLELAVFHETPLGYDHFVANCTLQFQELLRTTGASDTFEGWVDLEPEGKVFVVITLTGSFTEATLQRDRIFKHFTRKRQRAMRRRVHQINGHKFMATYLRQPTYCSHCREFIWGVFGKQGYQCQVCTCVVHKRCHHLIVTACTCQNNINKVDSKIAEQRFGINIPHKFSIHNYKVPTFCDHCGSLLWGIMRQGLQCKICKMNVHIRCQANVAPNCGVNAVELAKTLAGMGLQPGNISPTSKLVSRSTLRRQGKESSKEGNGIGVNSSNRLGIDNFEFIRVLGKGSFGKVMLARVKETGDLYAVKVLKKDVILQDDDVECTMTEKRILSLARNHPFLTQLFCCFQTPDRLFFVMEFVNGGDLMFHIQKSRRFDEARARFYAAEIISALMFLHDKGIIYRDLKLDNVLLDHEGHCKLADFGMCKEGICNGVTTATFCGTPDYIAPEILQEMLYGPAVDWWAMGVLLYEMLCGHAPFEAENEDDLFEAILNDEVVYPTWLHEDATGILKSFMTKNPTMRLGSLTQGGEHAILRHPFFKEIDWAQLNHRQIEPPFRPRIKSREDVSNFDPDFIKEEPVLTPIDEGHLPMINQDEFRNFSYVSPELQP

ROCK1 = biological target: T22, ROCK1 (Homo sapiens, UniProt Q13464)
T22 construct: purchased Carna Biosciences

SGK = biological target: T23, SGK (Homo sapiens, UniProt O00141)
T23 construct: purchased Carna Biosciences
T23 sequence (O00141 1-431): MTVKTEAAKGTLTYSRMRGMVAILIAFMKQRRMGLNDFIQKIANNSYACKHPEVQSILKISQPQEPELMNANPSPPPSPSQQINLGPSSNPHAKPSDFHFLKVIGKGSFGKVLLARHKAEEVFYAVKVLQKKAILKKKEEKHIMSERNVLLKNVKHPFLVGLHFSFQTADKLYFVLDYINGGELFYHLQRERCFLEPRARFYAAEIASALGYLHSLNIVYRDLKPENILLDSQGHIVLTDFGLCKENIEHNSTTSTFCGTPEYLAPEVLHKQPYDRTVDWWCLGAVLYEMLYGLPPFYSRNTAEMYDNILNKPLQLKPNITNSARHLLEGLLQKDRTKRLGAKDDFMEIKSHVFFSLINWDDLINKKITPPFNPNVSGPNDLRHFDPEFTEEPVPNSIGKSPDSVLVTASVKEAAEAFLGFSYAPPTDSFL

SRPK1 = biological target: T24, SRPK1 (Homo sapiens, UniProt Q96SB4)
T24 construct: purchased Carna Biosciences

WNK3 = biological target: T25, WNK3 (Homo sapiens, UniProt Q9BYP7)
T25 construct: purchased Carna Biosciences

| SMILES | Percentage inhibition of kinase enzyme activity (DDR1) | Percentage inhibition of kinase enzyme activity (EPHA2) | Percentage inhibition of kinase enzyme activity (FAK) | Percentage inhibition of kinase enzyme activity (FLT1) | Percentage inhibition of kinase enzyme activity (PDGFRβ) | Percentage inhibition of kinase enzyme activity (CaMK1α) | Percentage inhibition of kinase enzyme activity (CaMK2γ) | Percentage inhibition of kinase enzyme activity (CDC7/ASK) | Percentage inhibition of kinase enzyme activity (CDK3/CycE1) | Percentage inhibition of kinase enzyme activity (CHK2) | Percentage inhibition of kinase enzyme activity (CK1δ) | Percentage inhibition of kinase enzyme activity (DYRK1B) | Percentage inhibition of kinase enzyme activity (IRAK4) | Percentage inhibition of kinase enzyme activity (JNK3) | Percentage inhibition of kinase enzyme activity (MARK1) | Percentage inhibition of kinase enzyme activity (MARK2) | Percentage inhibition of kinase enzyme activity (MNK2) | Percentage inhibition of kinase enzyme activity (NEK2) | Percentage inhibition of kinase enzyme activity (PAK6) | Percentage inhibition of kinase enzyme activity (SGK) | further results |
| --- | --- | --- | --- | --- | --- | --- | --- | --- | --- | --- | --- | --- | --- | --- | --- | --- | --- | --- | --- | --- | --- |
| CC#CC(=O)N1CCC[C@H]1c1nc(-c2ccc(C(=O)Nc3ccccn3)cc2)c2c(N)nccn12 [acalabrutinib] | 7.80% | -3.60% | -1.39% | -1.14% | 5.36% | -4.29% | -1.85% | -1.64% | -6.14% | -5.77% | 2.76% | -19.49% | -6.55% | -0.89% | -3.49% | -9.24% | 12.37% | -6.35% | -8.74% | -5.11% | Percentage inhibition of kinase enzyme activity (CDK9/CycT1): 15.27%; Percentage inhibition of kinase enzyme activity (PKCη): -3.18%; Percentage inhibition of kinase enzyme activity (ROCK1): -7.78%; Percentage inhibition of kinase enzyme activity (SRPK1): -4.73%; Percentage inhibition of kinase enzyme activity (WNK3): -0.26% |
| C=CC(=O)N1CCC[C@@H](n2nc(-c3ccc(Oc4ccccc4)cc3)c3c(N)ncnc32)C1 [ibrutinib] | 37.17% | 6.83% | 5.04% | 72.57% | 54.81% | 13.82% | -1.83% | -0.99% | 0.49% | 14.14% | 7.46% | 1.91% | -5.09% | 0.98% | 2.46% | 2.67% | 19.75% | 6.64% | 8.60% | -21.37% | Percentage inhibition of kinase enzyme activity (PKCη): 3.27%; Percentage inhibition of kinase enzyme activity (ROCK1): -5.42%; Percentage inhibition of kinase enzyme activity (SRPK1): 1.20%; Percentage inhibition of kinase enzyme activity (WNK3): 6.84% |
| O=C(c1ccc(Oc2ccccc2)cc1Cl)c1c[nH]c2ncnc(N[C@@H]3CC[C@@H](CO)OC3)c12 [nemtabrutinib] | 93.81% | 33.13% | 100.03% | 87.14% | 76.83% | 11.41% | 1.06% | -1.26% | 7.04% | 49.89% | 25.76% | -3.59% | 2.38% | -2.93% | 2.15% | -4.16% | 56.12% | 74.64% | 64.72% | 1.16% | Percentage inhibition of kinase enzyme activity (CDK9/CycT1): -0.08%; Percentage inhibition of kinase enzyme activity (PKCη): 5.25%; Percentage inhibition of kinase enzyme activity (ROCK1): 16.05%; Percentage inhibition of kinase enzyme activity (SRPK1): 6.73%; Percentage inhibition of kinase enzyme activity (WNK3): 52.96% |
| COc1ccc(F)cc1C(=O)NCc1ccc(-c2nn([C@@H](C)C(F)(F)F)c(N)c2C(N)=O)cc1 [pirtobrutinib] | 2.52% | 4.53% | 0.91% | 4.85% | 5.87% | -9.87% | -1.71% | -5.67% | -4.77% | 7.28% | 6.20% | 12.04% | -1.11% | 0.49% | -8.44% | 2.21% | 7.34% | 2.00% | 4.12% | 3.55% | Percentage inhibition of kinase enzyme activity (CDK9/CycT1): -6.41%; Percentage inhibition of kinase enzyme activity (PKCη): 3.32%; Percentage inhibition of kinase enzyme activity (ROCK1): -4.30%; Percentage inhibition of kinase enzyme activity (SRPK1): 8.97%; Percentage inhibition of kinase enzyme activity (WNK3): 2.54% |
| C=CC(=O)N1CCC([C@@H]2CCNc3c(C(N)=O)c(-c4ccc(Oc5ccccc5)cc4)nn32)CC1 [zanubrutinib] |  | -0.10% | 0.0146% | 22.02% | 5.37% |  |  |  |  |  |  |  |  |  |  |  |  |  |  | -0.67% |  |
